Results as given in PubChem BioAssay AID256 (DTP/NCI, 2004).
Toxic doses and inconclusive results are not listed.

Tested on: CD2F1 mice, L1210 leukemia ip, survival T/C
Experiment: NCI In Vivo Anticancer Drug Screen. Data for tumor model L1210 Leukemia (intraperitoneal) in CD2F1 (CDF1) mice
Details: endpoint: mean survival time, higher = longer survival
Summary of the method: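 Each value reflects a quotient of treated over vehicle control outcomes in mice with a transplanted tumor.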

[1] = dose: 5.0 mg/kg/injection, schedule: Q01DX009 (ip), vehicle: saline
[2] = dose: 10.0 mg/kg/injection, schedule: Q01DX009 (ip), vehicle: saline
[3] = dose: 100.0 mg/kg/injection, schedule: Q04DX003 (ip), vehicle: saline with Tween-80
[4] = dose: 200.0 mg/kg/injection, schedule: Q04DX003 (ip), vehicle: saline with Tween-80
[5] = dose: 400.0 mg/kg/injection, schedule: Q04DX003 (ip), vehicle: saline with Tween-80
[6] = dose: 50.0 mg/kg/injection, schedule: Q04DX002 (ip), vehicle: saline with Tween-80
[7] = dose: 100.0 mg/kg/injection, schedule: Q04DX002 (ip), vehicle: saline with Tween-80
[8] = dose: 200.0 mg/kg/injection, schedule: Q04DX002 (ip), vehicle: saline with Tween-80
[9] = dose: 75.0 mg/kg/injection, schedule: Q01DX001 (ip), vehicle: saline
[10] = dose: 100.0 mg/kg/injection, schedule: Q01DX001 (ip), vehicle: saline with Tween-80
[11] = dose: 200.0 mg/kg/injection, schedule: Q01DX001 (ip), vehicle: saline with Tween-80
[12] = dose: 400.0 mg/kg/injection, schedule: Q01DX001 (ip), vehicle: saline with Tween-80

`C[N+](C)(Cc1ccc(F)cc1)C1c2ccccc2-c2ccccc21` was tested, and the T/C (dose: 1.56 mg/kg/injection, schedule: Q04DX003 (ip), vehicle: saline) was 97 % of control, the T/C (dose: 3.13 mg/kg/injection, schedule: Q04DX003 (ip), vehicle: saline) was 97 % of control and the T/C (dose: 6.25 mg/kg/injection, schedule: Q04DX003 (ip), vehicle: saline) was 98 % of control.

In the case of `CN1CCN(C(=O)NCCCl)CC1`, the T/C [1] was 107 % of control, the T/C (dose: 5.0 mg/kg/injection, schedule: Q04DX003 (ip), vehicle: saline) was 93 % of control and the T/C [2] was 94 % of control. For the same molecule, the T/C (dose: 10.0 mg/kg/injection, schedule: Q04DX003 (ip), vehicle: saline) was 92 % of control and the T/C (dose: 20.0 mg/kg/injection, schedule: Q04DX003 (ip), vehicle: saline) was 92 % of control.

For `O=C1c2ccccc2C(=O)c2c(O)c(N3CCC(C(=O)O)CC3)cc(O)c21`, the T/C (dose: 12.5 mg/kg/injection, schedule: Q01DX005 (ip), vehicle: other) was 106 % of control, the T/C (dose: 25.0 mg/kg/injection, schedule: Q01DX005 (ip), vehicle: other) was 104 % of control and the T/C (dose: 50.0 mg/kg/injection, schedule: Q01DX005 (ip), vehicle: other) was 106 % of control. The T/C (dose: 100.0 mg/kg/injection, schedule: Q01DX005 (ip), vehicle: other) was 96 % of control and the T/C (dose: 200.0 mg/kg/injection, schedule: Q01DX005 (ip), vehicle: other) was 98 % of control.

For `O=C(CO)c1ccccc1`, the T/C [3] was 97 % of control, the T/C [4] was 92 % of control and the T/C [5] was 92 % of control.

With `CC(C)(C)N1C2CCCC21` (stereo unspecified) the T/C (dose: 5.0 mg/kg/injection, schedule: Q01DX001 (ip), vehicle: saline) was 106 % of control, the T/C [1] was 102 % of control and the T/C (dose: 10.0 mg/kg/injection, schedule: Q01DX001 (ip), vehicle: saline) was 106 % of control. For the same molecule, the T/C [2] was 102 % of control, the T/C (dose: 20.0 mg/kg/injection, schedule: Q01DX001 (ip), vehicle: saline) was 95 % of control and the T/C (dose: 20.0 mg/kg/injection, schedule: Q01DX009 (ip), vehicle: saline) was 100 % of control.

In the case of `O=C(Nc1ccc(F)c(Cl)c1)Oc1ccc(F)cc1Cl`, the T/C (dose: 100.0 mg/kg/injection, schedule: Q01DX009 (ip), vehicle: saline with Tween-80) was 103 % of control, the T/C (dose: 200.0 mg/kg/injection, schedule: Q01DX009 (ip), vehicle: saline with Tween-80) was 104 % of control and the T/C (dose: 400.0 mg/kg/injection, schedule: Q01DX009 (ip), vehicle: saline with Tween-80) was 92 % of control.

In the case of `C=C1C2C(c3ccccc3)=CC(C1(C)C(Cl)Cl)C(C#N)(C#N)C2(C#N)C#N` (stereo unspecified), the T/C [6] was 96 % of control, the T/C [7] was 108 % of control and the T/C [8] was 100 % of control.

With `Nc1cc(C(Br)(Br)Br)nc2ccccc12` the T/C [9] was 103 % of control.

In the case of `NC(=O)c1[nH]cnc1/N=N/N(CCO)Cc1ccccc1`, the T/C [3] was 98 % of control, the T/C [4] was 95 % of control and the T/C [5] was 95 % of control.

With `c1ccc(CNc2nnnn2C2CCCCC2)cc1` the T/C (dose: 25.0 mg/kg/injection, schedule: Q04DX002 (ip), vehicle: saline with Tween-80) was 95 % of control, the T/C [6] was 91 % of control and the T/C [7] was 102 % of control.

In the case of `O=C(CNC(=O)OCc1ccccc1)NCC(=O)NC(CO)C(=O)O` (stereo unspecified), the T/C [3] was 95 % of control, the T/C [4] was 104 % of control and the T/C [5] was 96 % of control.

For `OCCCC(Sc1ccccc1)c1ccccc1` (stereo unspecified), the T/C (dose: 75.0 mg/kg/injection, schedule: Q04DX003 (ip), vehicle: saline) was 91 % of control, the T/C (dose: 150.0 mg/kg/injection, schedule: Q04DX003 (ip), vehicle: saline) was 101 % of control and the T/C (dose: 300.0 mg/kg/injection, schedule: Q04DX003 (ip), vehicle: saline) was 91 % of control.

In the case of `CNC(=O)OCC1C(=O)C2C(CN(C)C3=C1C(=O)C(N)=C(C)C3=O)N2C` (stereo unspecified), the T/C (dose: 83.0 mg/kg/injection, schedule: Q01DX001 (ip), vehicle: carboxymethylcellulose (CMC)) was 106 % of control, the T/C (dose: 125.0 mg/kg/injection, schedule: Q01DX001 (ip), vehicle: carboxymethylcellulose (CMC)) was 102 % of control and the T/C (dose: 187.0 mg/kg/injection, schedule: Q01DX001 (ip), vehicle: carboxymethylcellulose (CMC)) was 118 % of control.

For `CC1CC(C)(C)NC(CC2CCCCC2O)O1` (stereo unspecified), the T/C [3] was 94 % of control.

With `O=[N+]([O-])c1ccc(/C=N\N=C\c2ccc([N+](=O)[O-])cc2)cc1` the T/C (dose: 50.0 mg/kg/injection, schedule: Q01DX009 (ip), vehicle: Klucel (hydroxypropylcellulose) (HPC)) was 106 % of control, the T/C (dose: 100.0 mg/kg/injection, schedule: Q01DX009 (ip), vehicle: Klucel (hydroxypropylcellulose) (HPC)) was 106 % of control and the T/C (dose: 200.0 mg/kg/injection, schedule: Q01DX009 (ip), vehicle: Klucel (hydroxypropylcellulose) (HPC)) was 109 % of control.

`COc1cccc2c1C(=O)c1c(O)c3c(c(O)c1C2=O)C[C@@](O)(C(=O)COC(=O)Cc1ccccc1)C[C@@H]3OC1CC(N)C(O)C(C)O1` (stereo partly specified) was tested, and the T/C (dose: 0.5 mg/kg/injection, schedule: Q01DX009 (ip), vehicle: saline with Tween-80) was 123 % of control, the T/C (dose: 1.32 mg/kg/injection, schedule: Q01DX009 (ip), vehicle: saline) was 118 % of control and the T/C (dose: 2.0 mg/kg/injection, schedule: Q01DX009 (ip), vehicle: saline) was 114 % of control. The T/C (dose: 3.0 mg/kg/injection, schedule: Q01DX009 (ip), vehicle: saline) was 117 % of control, the T/C (dose: 8.0 mg/kg/injection, schedule: Q01DX009 (ip), vehicle: saline with Tween-80) was 96 % of control and the T/C (dose: 10.0 mg/kg/injection, schedule: Q04DX003 (ip), vehicle: saline with Tween-80) was 158 % of control. For the same molecule, the T/C (dose: 20.0 mg/kg/injection, schedule: Q01DX001 (ip), vehicle: saline with Tween-80) was 107 % of control and the T/C (dose: 20.0 mg/kg/injection, schedule: Q04DX003 (ip), vehicle: saline with Tween-80) was 102 % of control.

In the case of `CC(C)(CCC#N)C(O)c1ccccc1` (stereo unspecified), the T/C (dose: 100.0 mg/kg/injection, schedule: Q04DX002 (ip), vehicle: other) was 98 % of control, the T/C (dose: 200.0 mg/kg/injection, schedule: Q04DX002 (ip), vehicle: other) was 102 % of control and the T/C (dose: 400.0 mg/kg/injection, schedule: Q04DX002 (ip), vehicle: other) was 105 % of control.

`C=CCCCCCCCCC(=O)NCc1ccccn1` was tested, and the T/C [10] was 93 % of control, the T/C [11] was 102 % of control and the T/C [12] was 91 % of control.

`CN(C)CCOc1cccc(Br)c1` was tested, and the T/C (dose: 25.0 mg/kg/injection, schedule: Q04DX003 (ip), vehicle: saline) was 100 % of control, the T/C (dose: 50.0 mg/kg/injection, schedule: Q04DX003 (ip), vehicle: saline) was 100 % of control and the T/C (dose: 100.0 mg/kg/injection, schedule: Q04DX003 (ip), vehicle: saline) was 100 % of control.

With `COc1cc2ccc(CCN)cc2cc1OC` the T/C (dose: 12.5 mg/kg/injection, schedule: Q04DX003 (ip), vehicle: saline with Tween-80) was 102 % of control, the T/C (dose: 25.0 mg/kg/injection, schedule: Q04DX003 (ip), vehicle: saline with Tween-80) was 102 % of control and the T/C (dose: 50.0 mg/kg/injection, schedule: Q04DX003 (ip), vehicle: saline with Tween-80) was 96 % of control.

In the case of `CC(=O)OC1C(OC(C)=O)C(OC(C)=O)C(OC(C)=O)C(OC(C)=O)C1OC(C)=O` (stereo unspecified), the T/C [7] was 100 % of control, the T/C [8] was 86 % of control and the T/C (dose: 400.0 mg/kg/injection, schedule: Q04DX002 (ip), vehicle: saline with Tween-80) was 93 % of control.

In the case of `O=C(Nc1cc(Cl)c(NC(=O)c2ccccc2)c(Cl)c1)c1ccccc1`, the T/C [10] was 96 % of control, the T/C [11] was 89 % of control and the T/C [12] was 86 % of control.

`N#C/C(=C(/C#N)c1ccccc1)c1ccccc1` was tested, and the T/C [3] was 96 % of control, the T/C [4] was 94 % of control and the T/C [5] was 88 % of control.

For `c1cc2c3c(c4sc5ccccc5c4cc3c1)CC2`, the T/C (dose: 12.5 mg/kg/injection, schedule: Q04DX003 (ip), vehicle: other) was 101 % of control, the T/C (dose: 25.0 mg/kg/injection, schedule: Q04DX003 (ip), vehicle: other) was 115 % of control and the T/C (dose: 50.0 mg/kg/injection, schedule: Q04DX003 (ip), vehicle: other) was 108 % of control. The T/C (dose: 100.0 mg/kg/injection, schedule: Q04DX003 (ip), vehicle: other) was 115 % of control and the T/C (dose: 200.0 mg/kg/injection, schedule: Q04DX003 (ip), vehicle: other) was 108 % of control.

For `CCCCCC/C=N\N=C(N)N`, the T/C [9] was 103 % of control.

`CC(C)(C)C1=CC(=CN(O)C(C)(C)C)C=C(C(C)(C)C)C1=O` was tested, and the T/C [10] was 100 % of control, the T/C [11] was 103 % of control and the T/C [12] was 100 % of control.
